The values that follow come from patent US6924285B2, “Bicyclic heterocyclic compounds, pharmaceutical compositions containing these compounds, their use and process for preparing them” (Boehringer Ingelheim Pharma GmbH & Co., priority 2002, dated 2005).

pIC50: −log10 of the molar value.

The target in data set [1] is T1, human EGF-receptor kinase (Homo sapiens, UniProt P00533).
T1 construct: GST; made in house; host or cells: Sf9 insect cells (baculovirus)
The data set can be described thus: Inhibition of human EGF-receptor kinase (enzyme assay, ELISA read-out). It counts as biochemical. The note with it: cytoplasmic tyrosine kinase domain as GST fusion protein, substrate pEY/bio-pEY, 30 minutes at ambient temperature. The method, then:
The inhibition of human EGF-receptor kinase was determined using the cytoplasmic tyrosine kinase domain (methionine 664 to alanine 1186 based on the sequence published in Nature 309 (1984), 418). For this the protein was expressed in Sf9 insect cells as GST fusion protein using the Baculovirus expression system.
The enzyme activity was measured in the presence or absence of the test compounds in serial dilutions. The polymer pEY (4:1) obtained from SIGMA was used as the substrate. Biotinylated pEY (bio-pEY) was added as the tracer substrate. 100 μl of reaction solution contained 10 μl of the inhibitor in 50% DMSO, 20 μl of the substrate solution (200 mM HEPES pH 7.4, 50 mM magnesium acetate, 2.5 mg/ml poly(EY), 5 μg/ml bio-pEY) and 20 μl of enzyme preparation. The enzyme reaction was started by the addition of 50 μl of a 100 μM ATP solution in 10 mM of magnesium chloride. The dilution of the enzyme preparation was adjusted so that the incorporation of phosphate in the bio-pEY was linear in terms of time and quantity of enzyme. The enzyme preparation was diluted in 20 mM HEPES pH 7.4, 1 mM EDTA, 130 mM common salt, 0.05% Triton X-100, 1 mM DTT and 10% glycerol.
The enzyme assays were carried out at ambient temperature over a period of 30 minutes and ended by the addition of 50 μl of a stopping solution (250 mM EDTA in 20 mM HEPES pH 7.4). 100 μl were placed on a streptavidine-coated microtitre plate and incubated for 60 minutes at ambient temperature. Then the plate was washed with 200 μl of a wash solution (50 mM Tris, 0.05% Tween 20). After the addition of 100 μl of an HRPO-labelled anti-PY antibody (PY20H Anti-PTyr:HRP made by Transduction Laboratories, 250 ng/ml) the preparation was incubated for 60 minutes. Then the microtitre plate was washed three times with 200 μl of wash solution. The samples were then combined with 100 μl of a TMB-peroxidase solution (A:B=1:1, Kirkegaard Perry Laboratories). After 10 minutes the reaction was stopped. The extinction was measured at OD450 nm with an ELISA reader. All the results were measured three times.
The data were adapted by iterative calculation using an analytical pogramme for sigmoidal curves (Graph Pad Prism Version 3.0) with a variable Hill pitch. […] The active substance concentration which inhibits the activity of EGF receptor kinase by 50% (IC50) was derived from the curves.

T1 sequence (P00533 688-1210): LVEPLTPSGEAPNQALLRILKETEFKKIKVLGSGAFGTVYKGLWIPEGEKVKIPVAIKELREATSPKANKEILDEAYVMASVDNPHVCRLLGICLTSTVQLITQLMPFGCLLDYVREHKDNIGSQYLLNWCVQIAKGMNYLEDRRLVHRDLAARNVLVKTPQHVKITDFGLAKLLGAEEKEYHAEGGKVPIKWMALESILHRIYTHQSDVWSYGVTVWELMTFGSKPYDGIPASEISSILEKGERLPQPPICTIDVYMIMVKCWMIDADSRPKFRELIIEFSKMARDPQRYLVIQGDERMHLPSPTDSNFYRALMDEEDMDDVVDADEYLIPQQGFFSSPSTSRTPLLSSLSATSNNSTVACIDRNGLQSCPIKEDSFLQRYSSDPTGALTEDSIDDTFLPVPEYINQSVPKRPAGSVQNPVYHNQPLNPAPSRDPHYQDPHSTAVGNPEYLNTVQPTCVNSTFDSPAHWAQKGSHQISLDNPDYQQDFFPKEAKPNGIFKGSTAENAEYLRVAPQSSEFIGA

Take `COc1cc2ncnc(Nc3ccc(F)c(Cl)c3)c2cc1O[C@H]1CCNC1.Cl.Cl`: the melting point was determined as 251 °C.

As for `COc1cc2ncnc(Nc3ccc(F)c(Cl)c3)c2cc1OC1CCOCC1` [1(1), 4-[(3-chloro-4-fluoro-phenyl)amino]-6-(tetrahydropyran-4-yloxy)-7-methoxy-quinazoline], the pIC50 in data set [1] was 9.92. The same measure, in the same setting: the same measure for `COc1cc2ncnc(Nc3ccc(F)c(Cl)c3)c2cc1O[C@H]1CC[C@@H](NC(=O)OC(C)(C)C)CC1` [1(2), 4-[(3-chloro-4-fluoro-phenyl)amino]-6-[cis-4-(tert.-butyloxycarbonylamino)-cyclohexan-1-yloxy]-7-methoxy-quinazoline]: 8.70; for `COc1cc2ncnc(Nc3ccc(F)c(Cl)c3)c2cc1O[C@@H]1CCOC1` [1(3), 4-[(3-chloro-4-fluoro-phenyl)amino]-6-((R)-tetrahydrofuran-3-yloxy)-7-methoxy-quinazoline]: 8.96. On the same count and under the same terms, with `COc1cc2ncnc(Nc3ccc(F)c(Cl)c3)c2cc1O[C@H]1CC[C@H](NC(=O)OC(C)(C)C)CC1` [1(4), 4-[(3-chloro-4-fluoro-phenyl)amino]-6-[trans-4-(tert.-butyloxycarbonylamino)-cyclohexan-1-yloxy]-7-methoxy-quinazoline] the figure was 9.22; with `COc1cc2ncnc(Nc3ccc(F)c(Cl)c3)c2cc1OC1CCN(C(=O)OC(C)(C)C)CC1` [1(5), 4-[(3-chloro-4-fluoro-phenyl)amino]-6-[1-(tert.-butyloxycarbonyl)-piperidin-4-yloxy]-7-methoxy-quinazoline], 9.22. The same measure, in the same setting: the same measure for `COc1cc2ncnc(Nc3ccc(F)c(Cl)c3)c2cc1OC1CCCOC1` (stereo not shown) [1(6), 4-[(3-chloro-4-fluoro-phenyl)amino]-6-(tetrahydropyran-3-yloxy)-7-methoxy-quinazoline]: 9.16; for `COc1cc2ncnc(Nc3ccc(F)c(Cl)c3)c2cc1O[C@H]1CC[C@H](N)CC1` [2(1), 4-[(3-chloro-4-fluoro-phenyl)amino]-6-(trans-4-amino-cyclohexan-1-yloxy)-7-methoxy-quinazoline]: 9.80; for `COc1cc2ncnc(Nc3ccc(F)c(Cl)c3)c2cc1O[C@H]1CC[C@H](NS(C)(=O)=O)CC1` [3(1), 4-[(3-chloro-4-fluoro-phenyl)amino]-6-(trans-4-methanesulphonylamino-cyclohexan-1-yloxy)-7-methoxy-quinazoline]: 9.85.

As to `COc1cc2ncnc(Nc3ccc(F)c(Cl)c3)c2cc1OC1CCN(S(C)(=O)=O)CC1` [3(2), 4-[(3-chloro-4-fluoro-phenyl)amino]-6-(1-methanesulphonyl-piperidin-4-yloxy)-7-methoxy-quinazoline], the pIC50 in data set [1] is 9.66.

For `COc1cc2ncnc(Nc3ccc(F)c(Cl)c3)c2cc1OC1CCN(C(=O)N2CCOCC2)CC1` [3(7), 4-[(3-chloro-4-fluoro-phenyl)amino]-6-{1-[(morpholin-4-yl)carbonyl]-piperidin-4-yloxy}-7-methoxy-quinazoline], in data set [1], the pIC50 was 9.15.

Turning to `COCC(=O)N1CCC(Oc2cc3c(Nc4ccc(F)c(Cl)c4)ncnc3cc2OC)CC1` [3(8), 4-[(3-chloro-4-fluoro-phenyl)amino]-6-{1-[(methoxymethyl)carbonyl]-piperidin-4-yloxy}-7-methoxy-quinazoline], the pIC50 in data set [1] was 9.22. Still for that read-out and setting: the same measure for `COc1cc2ncnc(Nc3ccc(F)c(Cl)c3)c2cc1OC1CCN(C#N)CC1` [3(9), 4-[(3-chloro-4-fluoro-phenyl)amino]-6-(1-cyano-piperidin-4-yloxy)-7-methoxy-quinazoline]: 9.70; for `COc1cc2ncnc(Nc3ccc(F)c(Cl)c3)c2cc1OC1CCN(S(=O)(=O)N2CCOCC2)CC1` [3(11), 4-[(3-chloro-4-fluoro-phenyl)amino]-6-{1-[(morpholin-4-yl)sulphonyl]-piperidin-4-yloxy}-7-methoxy-quinazoline]: 10.00; for `COc1cc2ncnc(Nc3ccc(F)c(Cl)c3)c2cc1OC1CCN(CCNC(C)=O)CC1` [3(15), 4-[(3-chloro-4-fluoro-phenyl)amino]-6-[1-(2-acetylamino-ethyl)-piperidin-4-yloxy]-7-methoxy-quinazoline]: 9.00.

Consider `COc1cc2ncnc(Nc3ccc(F)c(Cl)c3)c2cc1O[C@H]1CC[C@H](NS(=O)(=O)N(C)C)CC1` [3(16), 4-[(3-chloro-4-fluoro-phenyl)amino]-6-{trans-4-[(dimethylamino)sulphonylamino]-cyclohexan-1-yloxy}-7-methoxy-quinazoline], for which the pIC50 in data set [1] was 9.00. `COc1cc2ncnc(Nc3ccc(F)c(Cl)c3)c2cc1O[C@H]1CC[C@H](NC(=O)N2CCOCC2)CC1` [3(17), 4-[(3-chloro-4-fluoro-phenyl)amino]-6-{trans-4-[(morpholin-4-yl)carbonylamino]-cyclohexan-1-yloxy}-7-methoxy-quinazoline]: the pIC50 in data set [1] was 9.52. The same measure, in the same setting: the same measure for `COc1cc2ncnc(Nc3ccc(F)c(Cl)c3)c2cc1O[C@H]1CC[C@H](NS(=O)(=O)N2CCOCC2)CC1` [3(18), 4-[(3-chloro-4-fluoro-phenyl)amino]-6-{trans-4-[(morpholin-4-yl)sulphonylamino]-cyclohexan-1-yloxy}-7-methoxy-quinazoline]: 9.40; for `CC(=O)NCCOc1cc2ncnc(Nc3ccc(F)c(Cl)c3)c2cc1OC1CCOCC1` [3(20), 4-[(3-chloro-4-fluoro-phenyl)amino]-6-(tetrahydropyran-4-yloxy)-7-(2-acetylamino-ethoxy)-quinazoline]: 9.00; for `CS(=O)(=O)NCCOc1cc2ncnc(Nc3ccc(F)c(Cl)c3)c2cc1OC1CCOCC1` [3(21), 4-[(3-chloro-4-fluoro-phenyl)amino]-6-(tetrahydropyran-4-yloxy)-7-(2-methanesulphonylamino-ethoxy)-quinazoline]: 9.40. For `COc1cc2ncnc(Nc3ccc(F)c(Cl)c3)c2cc1O[C@H]1CC[C@H](NS(=O)(=O)CCCN2CCOCC2)CC1` [4(1), 4-[(3-chloro-4-fluoro-phenyl)amino]-6-(trans-4-{[3-(morpholin-4-yl)-propyl]sulphonylamino}-cyclohexan-1-yloxy)-7-methoxy-quinazoline], the pIC50 in data set [1] was 9.80. On the same count and under the same terms, with `COCCOc1cc2ncnc(Nc3ccc(F)c(Cl)c3)c2cc1OC1CCOCC1` [7(5), 4-[(3-chloro-4-fluoro-phenyl)amino]-6-(tetrahydropyran-4-yloxy)-7-(2-methoxy-ethoxy)-quinazoline] the figure was 9.00.

`COc1cc2ncnc(Nc3ccc(F)c(Cl)c3)c2cc1O[C@H]1CCOC1` [Example 1, 4-[(3-chloro-4-fluoro-phenyl)amino]-6-((S)-tetrahydrofuran-3-yloxy)-7-methoxy-quinazoline] gave a melting point of 184 °C. Take `COc1cc2ncnc(Nc3ccc(F)c(Cl)c3)c2cc1OC1CCNCC1` [Example 2(2), 4-[(3-chloro-4-fluoro-phenyl)amino]-6-(piperidin-4-yloxy)-7-methoxy-quinazoline x trifluoroacetic acid]: the pIC50 in data set [1] was 9.66.

Take `COc1cc2ncnc(Nc3ccc(F)c(Cl)c3)c2cc1O[C@H]1CC[C@@H](NS(=O)(=O)CCCN2CCOCC2)CC1` [Example 4, 4-[(3-chloro-4-fluoro-phenyl)amino]-6-(cis-4-{[3-(morpholin-4-yl)-propyl]sulphonylamino}-cyclohexan-1-yloxy)-7-methoxy-quinazoline]: in data set [1], the pIC50 is 9.39.
